Where a name gives a salt, the structure may show the parent alone.
Experiments:
hNav1.7 [1] = biological target: T1, hNav1.7 (Homo sapiens (Human), UniProt Q15858); experiment: Tritiated compound binding to membranes from cells expressing hNav1.7 and the β1 subunit, modified protocol (LBA, Ex. 243B); conditions: 300 pM [3H]compound, room temperature, read-out: Nav1.7 LBA (Ex. 243B) IC50
Target sequence in this assay (Q15858 whole entry, looked up): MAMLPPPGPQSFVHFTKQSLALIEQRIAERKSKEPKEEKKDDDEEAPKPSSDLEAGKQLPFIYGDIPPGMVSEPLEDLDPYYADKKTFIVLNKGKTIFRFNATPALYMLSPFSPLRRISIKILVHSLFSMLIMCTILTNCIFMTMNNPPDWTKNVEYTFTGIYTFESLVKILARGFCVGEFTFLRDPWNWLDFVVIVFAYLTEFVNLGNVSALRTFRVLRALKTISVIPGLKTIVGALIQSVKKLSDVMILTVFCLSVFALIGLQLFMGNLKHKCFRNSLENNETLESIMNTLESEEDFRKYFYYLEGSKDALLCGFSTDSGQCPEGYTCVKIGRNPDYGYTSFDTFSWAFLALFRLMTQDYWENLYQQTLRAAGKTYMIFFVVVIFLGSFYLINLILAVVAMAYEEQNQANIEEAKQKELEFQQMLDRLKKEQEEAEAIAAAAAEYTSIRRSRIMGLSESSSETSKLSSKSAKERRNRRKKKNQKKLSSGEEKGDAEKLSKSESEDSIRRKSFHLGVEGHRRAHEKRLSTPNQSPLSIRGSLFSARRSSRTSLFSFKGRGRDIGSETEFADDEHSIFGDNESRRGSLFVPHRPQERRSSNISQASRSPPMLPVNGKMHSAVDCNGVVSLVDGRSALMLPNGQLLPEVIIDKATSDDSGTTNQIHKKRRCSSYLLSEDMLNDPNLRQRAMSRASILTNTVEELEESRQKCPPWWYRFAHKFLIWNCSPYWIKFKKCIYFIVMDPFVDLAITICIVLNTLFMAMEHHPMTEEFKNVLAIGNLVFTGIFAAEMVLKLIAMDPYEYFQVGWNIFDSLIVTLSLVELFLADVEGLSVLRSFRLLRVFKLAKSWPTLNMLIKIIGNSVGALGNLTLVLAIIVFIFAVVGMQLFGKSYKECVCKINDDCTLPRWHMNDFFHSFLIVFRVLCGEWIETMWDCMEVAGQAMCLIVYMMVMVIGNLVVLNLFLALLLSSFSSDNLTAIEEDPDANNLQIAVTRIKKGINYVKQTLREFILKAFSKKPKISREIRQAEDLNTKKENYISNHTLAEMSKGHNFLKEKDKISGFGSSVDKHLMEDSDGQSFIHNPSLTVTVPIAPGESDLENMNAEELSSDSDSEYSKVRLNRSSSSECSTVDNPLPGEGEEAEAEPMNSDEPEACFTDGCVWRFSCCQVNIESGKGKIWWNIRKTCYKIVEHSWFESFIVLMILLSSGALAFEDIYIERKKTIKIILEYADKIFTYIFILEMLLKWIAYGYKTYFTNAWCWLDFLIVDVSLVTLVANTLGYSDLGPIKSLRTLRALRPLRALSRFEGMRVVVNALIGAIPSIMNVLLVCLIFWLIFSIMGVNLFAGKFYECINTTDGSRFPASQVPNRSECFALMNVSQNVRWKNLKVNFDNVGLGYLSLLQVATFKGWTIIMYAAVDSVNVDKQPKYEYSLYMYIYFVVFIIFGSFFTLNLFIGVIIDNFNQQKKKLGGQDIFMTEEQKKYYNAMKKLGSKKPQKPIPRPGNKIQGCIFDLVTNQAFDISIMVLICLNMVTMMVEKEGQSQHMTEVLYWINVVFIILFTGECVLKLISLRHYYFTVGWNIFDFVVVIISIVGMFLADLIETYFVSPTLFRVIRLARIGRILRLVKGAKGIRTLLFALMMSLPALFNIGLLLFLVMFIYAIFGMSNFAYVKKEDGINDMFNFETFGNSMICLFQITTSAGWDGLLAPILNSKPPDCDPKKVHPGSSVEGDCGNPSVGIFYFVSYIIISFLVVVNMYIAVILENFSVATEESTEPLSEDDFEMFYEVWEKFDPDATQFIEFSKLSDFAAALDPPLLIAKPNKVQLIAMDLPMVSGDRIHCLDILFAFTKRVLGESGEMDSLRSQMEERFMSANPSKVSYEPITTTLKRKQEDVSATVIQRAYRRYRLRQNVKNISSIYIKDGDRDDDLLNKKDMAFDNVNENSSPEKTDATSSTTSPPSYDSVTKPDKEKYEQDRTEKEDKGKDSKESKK
Target sequence in this assay (Q07699 whole entry partner, looked up): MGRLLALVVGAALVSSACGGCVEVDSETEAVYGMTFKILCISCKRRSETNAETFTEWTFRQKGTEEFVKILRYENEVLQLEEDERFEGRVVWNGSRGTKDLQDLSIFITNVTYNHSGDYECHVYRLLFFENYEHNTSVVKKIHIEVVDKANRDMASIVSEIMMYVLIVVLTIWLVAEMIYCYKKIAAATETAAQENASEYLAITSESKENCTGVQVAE

hNav1.7 [2] = biological target: T1, hNav1.7; experiment: Patch voltage clamp electrophysiology assay (EP), Syncropatch 384PE, CHO cells expressing Nav1.7; type: cell-based; conditions: holding potential -50 mV; […] compound incubation; read-out: EP_SP hNav1.7 (Ex. 243B) IC50
In short: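 Automated whole-cell patch clamp on CHO cells stably expressing human Nav1.7, CsCl/EGTA internal and NMDG/80 mM Na+ external (pH 7.4). From −50 mV holding, −10 mV step, 20 ms recovery at −150 mV, then second −10 mV pulse where block is measured; inhibition after 7.5 min compound incubation.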
Target sequence in this assay (Q15858 other isoform, or with tags, fused parts or gaps): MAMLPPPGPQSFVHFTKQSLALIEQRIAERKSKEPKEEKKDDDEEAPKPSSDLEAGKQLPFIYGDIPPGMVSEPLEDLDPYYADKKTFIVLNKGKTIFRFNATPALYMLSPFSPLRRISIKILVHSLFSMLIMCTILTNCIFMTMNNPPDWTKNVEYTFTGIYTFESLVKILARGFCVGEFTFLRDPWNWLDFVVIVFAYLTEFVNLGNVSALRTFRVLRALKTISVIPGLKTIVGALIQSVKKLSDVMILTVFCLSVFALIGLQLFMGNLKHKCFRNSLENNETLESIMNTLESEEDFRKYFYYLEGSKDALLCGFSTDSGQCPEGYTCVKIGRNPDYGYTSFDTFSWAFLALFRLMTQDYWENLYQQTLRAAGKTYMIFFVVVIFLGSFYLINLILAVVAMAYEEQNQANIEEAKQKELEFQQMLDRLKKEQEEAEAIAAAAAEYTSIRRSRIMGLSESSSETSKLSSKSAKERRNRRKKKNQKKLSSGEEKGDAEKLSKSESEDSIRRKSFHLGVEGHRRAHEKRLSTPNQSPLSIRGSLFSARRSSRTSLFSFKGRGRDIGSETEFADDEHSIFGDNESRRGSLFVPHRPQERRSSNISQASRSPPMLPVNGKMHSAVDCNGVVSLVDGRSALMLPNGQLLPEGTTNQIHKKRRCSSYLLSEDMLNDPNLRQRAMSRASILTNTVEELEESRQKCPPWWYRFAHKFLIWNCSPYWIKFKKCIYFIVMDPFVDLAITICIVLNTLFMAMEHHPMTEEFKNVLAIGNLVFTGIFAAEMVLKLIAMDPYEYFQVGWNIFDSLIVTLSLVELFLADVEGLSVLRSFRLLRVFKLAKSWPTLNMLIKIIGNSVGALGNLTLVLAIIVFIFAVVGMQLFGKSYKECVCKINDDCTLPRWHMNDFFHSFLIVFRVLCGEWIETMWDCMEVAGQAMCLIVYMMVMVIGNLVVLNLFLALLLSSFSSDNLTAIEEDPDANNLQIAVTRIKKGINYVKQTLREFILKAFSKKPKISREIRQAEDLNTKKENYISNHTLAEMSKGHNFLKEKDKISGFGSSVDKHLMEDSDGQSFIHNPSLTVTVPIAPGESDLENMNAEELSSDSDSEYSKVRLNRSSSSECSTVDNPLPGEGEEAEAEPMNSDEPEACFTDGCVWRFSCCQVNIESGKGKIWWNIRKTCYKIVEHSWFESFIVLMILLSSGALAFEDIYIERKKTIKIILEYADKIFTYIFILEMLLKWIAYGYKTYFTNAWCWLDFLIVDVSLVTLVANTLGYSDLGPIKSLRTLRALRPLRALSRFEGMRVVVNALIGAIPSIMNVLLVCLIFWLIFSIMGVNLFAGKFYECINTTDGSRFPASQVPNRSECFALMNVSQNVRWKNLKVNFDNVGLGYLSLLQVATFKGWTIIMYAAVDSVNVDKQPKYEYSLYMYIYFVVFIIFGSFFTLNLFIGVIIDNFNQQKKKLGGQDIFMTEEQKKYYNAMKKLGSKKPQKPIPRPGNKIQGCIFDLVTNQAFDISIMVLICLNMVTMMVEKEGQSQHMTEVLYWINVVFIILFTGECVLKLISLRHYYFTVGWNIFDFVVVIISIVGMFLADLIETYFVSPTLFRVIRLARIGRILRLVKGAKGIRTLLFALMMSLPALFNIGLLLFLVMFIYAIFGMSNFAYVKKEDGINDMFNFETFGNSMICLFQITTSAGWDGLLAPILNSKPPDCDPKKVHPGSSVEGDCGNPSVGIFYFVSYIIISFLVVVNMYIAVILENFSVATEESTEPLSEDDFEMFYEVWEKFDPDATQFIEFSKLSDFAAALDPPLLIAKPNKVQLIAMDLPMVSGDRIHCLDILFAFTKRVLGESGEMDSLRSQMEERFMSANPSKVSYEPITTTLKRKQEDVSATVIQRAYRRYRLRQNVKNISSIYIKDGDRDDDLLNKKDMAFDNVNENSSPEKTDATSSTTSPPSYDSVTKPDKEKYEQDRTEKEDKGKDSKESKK

What does the source list for `CN(C1CCC1)[C@H]1C[C@@H](C(F)(F)F)CC[C@@H]1Nc1cc(F)c(S(=O)(=O)Nc2ccncn2)cc1Cl` [Example 180, 5-chloro-4-(((1S,2S,4S)-2-(cyclobutyl(methyl)amino)-4-(trifluoromethyl)cyclohexyl)amino)-2-fluoro-N-(pyrimidin-4-yl)benzenesulfonamide]?
IC50 (hNav1.7 [1]): 0.666 µM; IC50 (hNav1.7 [2]): 0.0495 µM

For `CN1CCC[C@@H]1C(=O)N(C)[C@H]1CCCC[C@@H]1Nc1cc(F)c(S(=O)(=O)Nc2nccs2)cc1Cl` [Example 204, (R)—N-((1S,2S)-2-((2-Chloro-5-fluoro-4-(N-(thiazol-2-yl)sulfamoyl)phenyl)amino)cyclohexyl)-N,1-dimethylpyrrolidine-2-carboxamide], which IC50 (hNav1.7 [1]) is on record?
The IC50 was 0.308 µM.

And the IC50 (hNav1.7 [2])?
The IC50 was 0.0205 µM.

Which IC50 (hNav1.7 [1]) does the source give for `CN1CC[C@@H](C(=O)N(C)[C@H]2CCCC[C@@H]2Nc2cc(F)c(S(=O)(=O)Nc3nccs3)cc2Cl)C1` [Example 200, (R)—N-((1S,2S)-2-((2-chloro-5-fluoro-4-(N-(thiazol-2-yl)sulfamoyl)phenyl)amino)cyclohexyl)-N,1-dimethylpyrrolidine-3-carboxamide] here?
Its IC50 is 0.15 µM.

What about the IC50 (hNav1.7 [2]) of the same compound?
The IC50 was 0.0167 µM.

How did the IC50 (hNav1.7 [1]) turn out when `O=S(=O)(Nc1ccncn1)c1cc(Cl)c(N[C@H]2CCCC[C@@H]2N2CCC[C@](F)(CO)C2)cc1F` [Example 221, 5-Chloro-2-fluoro-4-(((1S,2S)-2-((R)-3-fluoro-3-(hydroxymethyl)piperidin-1-yl)cyclohexyl)amino)-N-(pyrimidin-4-yl)benzenesulfonamide] was run?
The IC50 was 0.298 µM.

What about the IC50 (hNav1.7 [2]) of the same compound?
Its IC50 is 0.0629 µM.

What does the source list for `CN1CCC(N(C)[C@H]2CCCC[C@@H]2Nc2cc(F)c(S(=O)(=O)Nc3cccc(F)n3)cc2Cl)CC1` [Example 109, 5-chloro-2-fluoro-N-(6-fluoropyridin-2-yl)-4-(((1S,2S)-2-(methyl(1-methylpiperidin-4-yl)amino)cyclohexyl)amino)benzenesulfonamide]?
IC50 (hNav1.7 [1]): 0.0507 µM; IC50 (hNav1.7 [2]): 0.00868 µM

With `CN(C)[C@H]1C[C@H](c2cccc(C(F)(F)F)c2)CC[C@@H]1Nc1cc(F)c(S(=O)(=O)Nc2nccs2)cc1Cl` [Example 137, 5-chloro-4-(((1S,2S,4R)-2-(dimethylamino)-4-(3-(trifluoromethyl)phenyl)cyclohexyl)amino)-2-fluoro-N-(thiazol-2-yl)benzenesulfonamide] as the compound, how does the IC50 (hNav1.7 [1]) read?
The IC50 was 0.00357 µM.

What about the IC50 (hNav1.7 [2]) of the same compound?
The IC50 was 0.00124 µM.

`CN(c1cnn(C)c1)[C@H]1CCCC[C@@H]1Nc1cc(F)c(S(=O)(=O)Nc2nccs2)cc1Cl` [Example 140, 5-chloro-2-fluoro-4-(((1S,2S)-2-(methyl(1-methyl-1H-pyrazol-4-yl)amino)cyclohexyl)amino)-N-(thiazol-2-yl)benzenesulfonamide] was tested. Which IC50 (hNav1.7 [1]) did it give?
Its IC50 is 0.17 µM.

What about the IC50 (hNav1.7 [2]) of the same compound?
Its IC50 is 0.0132 µM.

Which IC50 (hNav1.7 [1]) does the source give for `CN(C)[C@H]1CCCC[C@@H]1Nc1cc(F)c(S(=O)(=O)Nc2cccc(F)n2)cc1C1CC1` [Example 107, 5-cyclopropyl-4-(((1S,2S)-2-(dimethylamino)cyclohexyl)amino)-2-fluoro-N-(6-fluoropyridin-2-yl)benzenesulfonamide formate] here?
Its IC50 is 0.137 µM.

And the IC50 (hNav1.7 [2])?
Its IC50 is 0.018 µM.

How did the IC50 (hNav1.7 [1]) turn out when `CN(C)[C@@H]1CCCCC[C@H]1Nc1cc(F)c(S(=O)(=O)Nc2nccs2)cc1Cl` [Example 145, 5-chloro-4-(((1R,2R)-2-(dimethylamino)cycloheptyl)amino)-2-fluoro-N-(thiazol-2-yl)benzenesulfonamide formate] was run?
Its IC50 is 2 µM.

And the IC50 (hNav1.7 [2])?
Its IC50 is 0.395 µM.

For `CN(C)[C@H]1CN(c2cccc(C(F)(F)F)c2)CC[C@@H]1Nc1cc(F)c(S(=O)(=O)Nc2ccncn2)cc1Cl` [Example 233, 5-Chloro-4-(((3S,4S)-3-(dimethylamino)-1-(3-(trifluoromethyl)phenyl)piperidin-4-yl)amino)-2-fluoro-N-(pyrimidin-4-yl)benzenesulfonamide], which IC50 (hNav1.7 [1]) is on record?
Its IC50 is 0.00982 µM.

What about the IC50 (hNav1.7 [2]) of the same compound?
The IC50 was 0.00171 µM.

`O=S(=O)(Nc1cccc(F)n1)c1cc(Cl)c(N[C@@H]2CCCC[C@H]2N2C[C@@H]3[C@@H](CO)[C@@H]3C2)cc1F` [Example 184] was tested. Which IC50 (hNav1.7 [1]) did it give?
Its IC50 is 2 µM.

And the IC50 (hNav1.7 [2])?
The IC50 was 4.96 µM.

For `CN(C)[C@H]1C[C@H](c2cccc(C(F)(F)F)c2)CC[C@@H]1Nc1cc(F)c(S(=O)(=O)Nc2ccon2)cc1Cl` [Example 229, 5-chloro-4-(((1S,2S,4R)-2-(dimethylamino)-4-(3-(trifluoromethyl)phenyl)cyclohexyl)amino)-2-fluoro-N-(isoxazol-3-yl)benzenesulfonamide], which IC50 (hNav1.7 [1]) is on record?
The IC50 was 0.055 µM.

What about the IC50 (hNav1.7 [2]) of the same compound?
The IC50 was 0.00838 µM.

`O=S(=O)(Nc1nccs1)c1cc(Cl)c(N[C@H]2CCCC[C@@H]2N2CCC[C@@H](CO)C2)cc1F` [Example 169, 5-chloro-2-fluoro-4-(((1S,2S)-2-((R)-3-(hydroxymethyl)piperidin-1-yl)cyclohexyl)amino)-N-(thiazol-2-yl)benzenesulfonamide formate] was tested. Which IC50 (hNav1.7 [1]) did it give?
The IC50 was 0.00756 µM.

And the IC50 (hNav1.7 [2])?
Its IC50 is 0.00334 µM.

What does the source list for `C[N+](C)([O-])[C@H]1C[C@@H](c2cccc(C(F)(F)F)c2)CC[C@@H]1Nc1cc(F)c(S(=O)(=O)Nc2ccncn2)cc1Cl` [Example 235, (1S,2S,5S)-2-((2-Chloro-5-fluoro-4-(N-(pyrimidin-4-yl)sulfamoyl)phenyl)amino)-N,N-dimethyl-5-(3-(trifluoromethyl)phenyl)cyclohexanamine oxide]?
IC50 (hNav1.7 [1]): 0.0118 µM; IC50 (hNav1.7 [2]): 0.00814 µM

Which IC50 (hNav1.7 [1]) does the source give for `CN(C)[C@@H]1CC2C(C[C@H]1Nc1cc(F)c(S(=O)(=O)Nc3nccs3)cc1Cl)C2(F)F` (stereo in doubt) [Example 210, 5-Chloro-4-(((1S,3R,4R,6R)-4-(dimethylamino)-7,7-difluorobicyclo[4.1.0]heptan-3-yl)amino)-2-fluoro-N-(thiazol-2-yl)benzenesulfonamide] here?
The IC50 was 2 µM.

What about the IC50 (hNav1.7 [2]) of the same compound?
The IC50 was 0.415 µM.

`CN(C)[C@H]1CC2C(C[C@@H]1Nc1cc(F)c(S(=O)(=O)Nc3nccs3)cc1Cl)C2(F)F` (stereo in doubt) [Example 207, 5-Chloro-4-(((1S,3S,4S,6R)-4-(dimethylamino)-7,7-difluorobicyclo[4.1.0]heptan-3-yl)amino)-2-fluoro-N-(thiazol-2-yl)benzenesulfonamide] was tested. Which IC50 (hNav1.7 [1]) did it give?
The IC50 was 1.6 µM.

And the IC50 (hNav1.7 [2])?
The IC50 was 0.203 µM.

Which results are given for `CN(CCC(C)(C)O)[C@H]1CCCC[C@@H]1Nc1cc(F)c(S(=O)(=O)Nc2cccc(F)n2)cc1Cl` [Example 124, 5-chloro-2-fluoro-N-(6-fluoropyridin-2-yl)-4-(((1S,2S)-2-((3-hydroxy-3-methylbutyl)(methyl)amino)cyclohexyl)amino)benzenesulfonamide]?
IC50 (hNav1.7 [1]): 1.23 µM; IC50 (hNav1.7 [2]): 0.107 µM

`O=S(=O)(Nc1ccncn1)c1cc(Cl)c(N[C@H]2CCCC[C@@H]2N2CC3CC3C2)cc1F` (stereo partly drawn) [Example 151, 4-(((1S,2S)-2-(3-azabicyclo[3.1.0]hexan-3-yl)cyclohexyl)amino)-5-chloro-2-fluoro-N-(pyrimidin-4-yl)benzenesulfonamide] was tested. Which IC50 (hNav1.7 [1]) did it give?
Its IC50 is 0.181 µM.

What about the IC50 (hNav1.7 [2]) of the same compound?
The IC50 was 0.0201 µM.

`CN(C)[C@H]1C[C@@H](c2cccc(Cl)c2)CC[C@@H]1Nc1cc(F)c(S(=O)(=O)Nc2ccncn2)cc1Cl` [Example 231, 5-Chloro-4-(((1S,2S,4S)-4-(3-chlorophenyl)-2-(dimethylamino)cyclohexyl)amino)-2-fluoro-N-(pyrimidin-4-yl)benzenesulfonamide formate] was tested. Which IC50 (hNav1.7 [1]) did it give?
Its IC50 is 0.00222 µM.

What about the IC50 (hNav1.7 [2]) of the same compound?
The IC50 was 0.000933 µM.

What does the source list for `CN1CC[C@H](C(=O)N(C)[C@H]2CCCC[C@@H]2Nc2cc(F)c(S(=O)(=O)Nc3nccs3)cc2Cl)C1` [Example 199, (S)—N-((1S,2S)-2-((2-chloro-5-fluoro-4-(N-(thiazol-2-yl)sufamoyl)phenyl)amino)cyclohexyl)-N,1-dimethylpyrrolidine-3-carboxamide]?
IC50 (hNav1.7 [1]): 0.131 µM; IC50 (hNav1.7 [2]): 0.0187 µM

Which IC50 (hNav1.7 [1]) does the source give for `N#C[C@H]1CCCN([C@H]2CCCC[C@@H]2Nc2cc(F)c(S(=O)(=O)Nc3nccs3)cc2Cl)C1` [Example 177, 5-chloro-4-(((1S,2S)-2-((S)-3-cyanopiperidin-1-yl)cyclohexyl)amino)-2-fluoro-N-(thiazol-2-yl)benzenesulfonamide] here?
Its IC50 is 0.0609 µM.

And the IC50 (hNav1.7 [2])?
Its IC50 is 0.00291 µM.

With `CN(C)[C@H]1C[C@@H](c2cccc(C(F)(F)F)c2)CC[C@@H]1Nc1cc(F)c(S(=O)(=O)Nc2nccs2)cc1Cl` [Example 129, 5-chloro-4-(((1S,2S,4S)-2-(dimethylamino)-4-(3-(trifluoromethyl)phenyl)cyclohexyl)amino)-2-fluoro-N-(thiazol-2-yl)benzenesulfonamide formate] as the compound, how does the IC50 (hNav1.7 [1]) read?
Its IC50 is 0.000255 µM.

What about the IC50 (hNav1.7 [2]) of the same compound?
The IC50 was 0.000372 µM.

`O=S(=O)(Nc1ccncn1)c1cc(Cl)c(N[C@H]2CCCC[C@@H]2N2CCC[C@@](F)(CO)C2)cc1F` [Example 222, 5-Chloro-2-fluoro-4-(((1S,2S)-2-((S)-3-fluoro-3-(hydroxymethyl)piperidin-1-yl)cyclohexyl)amino)-N-(pyrimidin-4-yl)benzenesulfonamide] was tested. Which IC50 (hNav1.7 [1]) did it give?
Its IC50 is 0.464 µM.

And the IC50 (hNav1.7 [2])?
Its IC50 is 0.124 µM.

Which IC50 (hNav1.7 [1]) does the source give for `CN(C)[C@H]1CCC(c2ccccc2F)C[C@@H]1Nc1cc(F)c(S(=O)(=O)Nc2nccs2)cc1Cl` (stereo in doubt) [Example 174, 5-chloro-4-(((1S,2S,5S)-2-(dimethylamino)-5-(2-fluorophenyl)cyclohexyl)amino)-2-fluoro-N-(thiazol-2-yl)benzenesulfonamide] here?
Its IC50 is 0.357 µM.

And the IC50 (hNav1.7 [2])?
Its IC50 is 0.0502 µM.

Which IC50 (hNav1.7 [1]) does the source give for `CN(CCO)[C@H]1C[C@@H](C(F)(F)F)CC[C@@H]1Nc1cc(F)c(S(=O)(=O)Nc2cccc(F)n2)cc1Cl` [Example 158, 5-chloro-2-fluoro-N-(6-fluoropyridin-2-yl)-4-(((1S,2S,4S)-2-((2-hydroxyethyl)(methyl)amino)-4-(trifluoromethyl)cyclohexyl)amino)benzenesulfonamide formate] here?
The IC50 was 0.00596 µM.

And the IC50 (hNav1.7 [2])?
The IC50 was 0.00271 µM.

What does the source list for `O=S(=O)(Nc1nccs1)c1cc(Cl)c(N[C@H]2CCCC[C@@H]2N2CCC[C@](F)(CO)C2)cc1F` [Example 212, 5-Chloro-2-fluoro-4-(((1S,2S)-2-((R)-3-fluoro-3-(hydroxymethyl)piperidin-1-yl)cyclohexyl)amino)-N-(thiazol-2-yl)benzenesulfonamide]?
IC50 (hNav1.7 [1]): 0.11 µM; IC50 (hNav1.7 [2]): 0.00659 µM

Reference: patent publication US10457654B2 (GENENTECH, INC., priority 2017, dated 2019)
